Values after ≈ are worked out from the molar mass of the structure shown. Where two headings read alike, the source gives them in different places.
Assays:
CHOB1 = assay: LAMELLARINS TOXICITY TO SENSITIVE TUMOR CELL LINE CHOB1 (MTT); type: cell-based, chinese hamster; conditions: Cricetulus griseus, 72 h, read-out: ACTIVITY: IC50
Method: (§1) Sensitive and MDR cells were maintained, in logarithmic phase of growth, in Eagle's Minimum Essential Medium, with Earle's Balanced Salts, with non-essential amino acids, with 2.0 mM L-glutamine, without sodium bicarbonate (EMEM/neaa), supplemented with 5% Fetal Calf Serum (FCS), 10^-2 M sodium bicarbonate and 0.1 g/l penicillin G+0.1 g/l streptomycin sulfate.
(§2) In Vitro cell cytotoxicity was determined using the 3-[4,5-dimethylthiazol-2-yl]-2,5-dipheniltetrazolium bromide (MTT), from Sigma Ref:M-2128, for quantitative measurement of cell growth and viability. See, T. Mosmann, "Rapid Colorimetric Assay for Cellular Growth and Survival: Application to Proliferation and Cytotoxicity Assays," Journal of Immunological Methods, 65: 55-63 (1983).
(§3) The tumor cell lines employed have been: P-388 (ATCC CCL 46), suspension culture of a lymphoid neoplasm from a DBA/2 mouse and its corresponding MDR cell line P-388/SCHABEL; CHOB1 (ATCC CCL 16), monolayer culture of chinese hamster ovary and its corresponding MDR cell line CHOC5. See, Rauscher Ill, et al., "Characterization of Auromycin-Resistant Hamster Cell Mutants that Display a Multidrug Resistance Phenotype," Molecular Pharmacology, 38: 198-206 (1990).
(§4) This form of assay employs 96-well cell culture plates […]. Cells were seeded into wells at 1×10^3 cells per well in 100 μl aliquots of EMEM 5% FCS containing different concentrations of the corresponding lamellarins and other compounds (standards) to be tested. Two separate sets of cultures without drugs were seeded, one as control of growth to ensure that cells remained in exponential phase of growth, and another without cells as control of medium. All determinations were carried out in duplicate.
(§5) After three days of incubation at 37° C., 10% CO2 in a 98% humid atmosphere, 150 μg of MTT is added to each well in 50 μl aliquots of assay medium. Plates were incubated for an additional 4 hours and 100 μl aliquots of isopropanol were added to each well. The broad absorption spectrum for the isopropanol solution of this crystal is optimal at 570 nm. Optical density values were obtained with the help of a Dynatech microplate reader and the results of the assay were used to generate graphics from which IC50 was calculated; i.e., wherein the IC50 is the test concentration which produces 50% cell growth inhibition.

CHOC5 (MDR) = assay: LAMELLARINS TOXICITY TO RESISTANT (MDR) TUMOR CELL LINE CHOC5 (MTT); type: cell-based, chinese hamster; conditions: Cricetulus griseus, 72 h, read-out: ACTIVITY: IC50
Method: as §1, §2, §3, §4, §5

P-388 = assay: LAMELLARINS TOXICITY TO SENSITIVE TUMOR CELL LINE P-388 (MTT); type: cell-based; conditions: Mus musculus, P388, 72 h, read-out: ACTIVITY: IC50
Method: as §1, §2, §3, §4, §5

P-388/SCHABEL (MDR) = assay: LAMELLARINS TOXICITY TO RESISTANT (MDR) TUMOR CELL LINE P-388/SCHABEL (MTT); type: cell-based; conditions: Mus musculus, P388, 72 h, read-out: ACTIVITY: IC50
Method: as §1, §2, §3, §4, §5

A549 = assay: Lamellarin in vitro activity vs. tumor cell lines, A549; conditions: for IC50: Homo sapiens; for in vitro antitumor activities: compared with lamellarins I, K and L, particularly A549 cells
[1] = test system: P388 Lymphocytic Leukemia; assay: In vivo anti-tumor activity vs P388 lymphocytic leukemia; set-up: species or system mouse; conditions: total 75.000 mg/kg, QD 1-5, ip
P388 = assay: Lamellarin in vitro activity vs. tumor cell lines, P388; conditions: Mus musculus
MLR = assay: Immunomodulatory activity (LcV:MLR); type: cell-based; conditions: in words
HT-29 = assay: Lamellarin in vitro activity vs. tumor cell lines, HT-29; type: cell-based; conditions: Homo sapiens; HT-29, Table IV
MEL-28 = assay: Lamellarin in vitro activity vs. tumor cell lines, MEL-28; type: cell-based; conditions: Homo sapiens, SK-MEL-28; MEL-28, Table IV
[2] = CHOB1, sensitive, MTT, three days
[3] = P-388, sensitive, MTT, three days
[4] = P-388/SCHABEL (MDR), MTT, three days
[5] = A549, read-out: cytotoxicity IC50
[6] = P388, read-out: cytotoxicity IC50

**Q.** COc1cc(-c2c3n(c4c(=O)oc5cc(OC(C)=O)c(OC)cc5c24)CCc2c-3cc(OC)c(OC)c2OC(C)=O)ccc1OC(C)=O [Lamellarin K-triacetate] was tested. Which IC50 (CHOB1; [2]) did it give?
**A.** 0.1 µg/mL (≈ 0.152 µM)

**Q.** What about the IC50 (CHOC5 (MDR); CHOC5 (MDR), MTT, three days) of the same compound?
**A.** 0.1 µg/mL (≈ 0.152 µM)

**Q.** And the IC50 (P-388; [3])?
**A.** 0.06 µg/mL (≈ 0.0912 µM)

**Q.** What about the IC50 (P-388/SCHABEL (MDR); [4]) of the same compound?
**A.** 0.1 µg/mL (≈ 0.152 µM)

**Q.** Which results are given for COc1cc(-c2c3n(c4c(=O)oc5cc(O)c(OC)cc5c24)CCc2c-3cc(OC)c(OC)c2O)ccc1O [Lamellarin K]?
**A.** IC50 (A549; A549): 0.25 µg/mL (≈ 0.47 µM); IC50 (A549; [5]): ~0.25 µg/mL (≈ 0.47 µM); IC50 (CHOB1; [2]): 0.1 µg/mL (≈ 0.188 µM); IC50 (CHOC5 (MDR); CHOC5 (MDR), MTT, three days): 0.4 µg/mL (≈ 0.753 µM); % T/C [1]: > 135.0%; Body Weight Change Day 5 [1]: 1.2 gm; Body Weight Day 5 [1]: 20.7 ± 0.5 gm; Mean Survival Time [1]: 28.3 ± 5.9; Body Weight Day 0 ([1]; baseline): 19.5 ± 0.5 gm; IC50 (P388; P388): 0.25 µg/mL (≈ 0.47 µM); IC50 (P388; [6]): ~0.25 µg/mL (≈ 0.47 µM); IC50 (P-388; [3]): 0.1 µg/mL (≈ 0.188 µM); IC50 (P-388/SCHABEL (MDR); [4]): 0.1 µg/mL (≈ 0.188 µM); immunomodulatory activity (MLR): moderate immunomodulatory activity; IC50 (HT-29): 1 µg/mL (≈ 1.88 µM)

**Q.** Which IC50 (CHOB1; [2]) does the source give for COc1ccc(-c2c3n(c4c(=O)oc5cc(OC(C)=O)c(OC)cc5c24)CCc2cc(OC(C)=O)c(OC)cc2-3)cc1OC(C)=O [Lamellarin L-triacetate] here?
**A.** 1.5 µg/mL (≈ 2.39 µM)

**Q.** What about the IC50 (CHOC5 (MDR); CHOC5 (MDR), MTT, three days) of the same compound?
**A.** 1.5 µg/mL (≈ 2.39 µM)

**Q.** And the IC50 (P-388; [3])?
**A.** 1.5 µg/mL (≈ 2.39 µM)

**Q.** And the IC50 (P-388/SCHABEL (MDR); [4])?
**A.** 1.5 µg/mL (≈ 2.39 µM)

**Q.** What does the source list for COc1ccc(-c2c3n(c4c(=O)oc5cc(O)c(OC)cc5c24)CCc2cc(O)c(OC)cc2-3)cc1O [Lamellarin L]?
**A.** IC50 (A549; A549): 0.25 µg/mL (≈ 0.499 µM); IC50 (A549; [5]): ~0.25 µg/mL (≈ 0.499 µM); IC50 (CHOB1; [2]): 0.4 µg/mL (≈ 0.798 µM); IC50 (CHOC5 (MDR); CHOC5 (MDR), MTT, three days): 0.6 µg/mL (≈ 1.2 µM); IC50 (P388; P388): 0.25 µg/mL (≈ 0.499 µM); IC50 (P388; [6]): ~0.25 µg/mL (≈ 0.499 µM); IC50 (P-388; [3]): 0.6 µg/mL (≈ 1.2 µM); IC50 (P-388/SCHABEL (MDR); [4]): 0.7 µg/mL (≈ 1.4 µM); immunomodulatory activity (MLR): moderate immunomodulatory activity; IC50 (HT-29): 2 µg/mL (≈ 3.99 µM)

**Q.** Which IC50 (CHOB1; [2]) does the source give for COc1cc(-c2c3c4cc(OC)c(OC(C)=O)cc4oc(=O)c3n3ccc4c(OC(C)=O)c(OC)c(OC)cc4c23)ccc1OC(C)=O [Lamellarin M-triacetate] here?
**A.** 0.5 µg/mL (≈ 0.763 µM)

**Q.** What about the IC50 (CHOC5 (MDR); CHOC5 (MDR), MTT, three days) of the same compound?
**A.** 2 µg/mL (≈ 3.05 µM)

**Q.** What about the IC50 (P-388; [3]) of the same compound?
**A.** 0.6 µg/mL (≈ 0.915 µM)

**Q.** What about the IC50 (P-388/SCHABEL (MDR); [4]) of the same compound?
**A.** 0.7 µg/mL (≈ 1.07 µM)

**Q.** For COc1cc(-c2c3c4cc(OC)c(O)cc4oc(=O)c3n3ccc4c(O)c(OC)c(OC)cc4c23)ccc1O [Lamellarin M], which IC50 (A549; A549) is on record?
**A.** 0.025 µg/mL (≈ 0.0472 µM)

**Q.** And the “in vitro antitumor activities” value (A549)?
**A.** significantly better, particularly against A549 cells, than the lamellarins I, K and L

**Q.** What about the IC50 (CHOB1) of the same compound?
**A.** 0.04 µg/mL (≈ 0.0755 µM)

**Q.** And the IC50 (CHOC5 (MDR))?
**A.** 0.09 µg/mL (≈ 0.17 µM)

**Q.** What about the IC50 (P388; P388) of the same compound?
**A.** 0.05 µg/mL (≈ 0.0944 µM)

**Q.** What about the IC50 (MEL-28) of the same compound?
**A.** 0.5 µg/mL (≈ 0.944 µM)

**Q.** And the IC50 (P-388)?
**A.** 0.08 µg/mL (≈ 0.151 µM)

**Q.** And the IC50 (P-388/SCHABEL (MDR))?
**A.** 0.09 µg/mL (≈ 0.17 µM)

**Q.** What about the IC50 (HT-29) of the same compound?
**A.** 0.5 µg/mL (≈ 0.944 µM)

**Q.** What does the source list for COc1ccc(-c2c3c4cc(OC)c(OC(C)=O)cc4oc(=O)c3n3ccc4cc(OC(C)=O)c(OC)cc4c23)cc1OC(C)=O [Lamellarin N-triacetate]?
**A.** IC50 (A549; A549): 0.012 µg/mL (≈ 0.0192 µM); in vitro antitumor activities (A549): significantly better, particularly against A549 cells, than the lamellarins I, K and L; IC50 (CHOB1; [2]): 0.06 µg/mL (≈ 0.0959 µM); IC50 (CHOC5 (MDR); CHOC5 (MDR), MTT, three days): 0.1 µg/mL (≈ 0.16 µM); IC50 (P388; P388): 0.1 µg/mL (≈ 0.16 µM); IC50 (MEL-28): 5 µg/mL (≈ 7.99 µM); IC50 (P-388; [3]): 0.09 µg/mL (≈ 0.144 µM); IC50 (P-388/SCHABEL (MDR); [4]): 0.2 µg/mL (≈ 0.32 µM); IC50 (HT-29): 5 µg/mL (≈ 7.99 µM)

**Q.** For C/C=C/C[C@@H](C)C(=O)[C@H]1C(=O)N[C@@H](C(C)C)C(=O)N(C)CC(=O)N(C)[C@@H](CC(C)C)C(=O)N[C@@H](C(C)C)C(=O)N(C)[C@@H](CC(C)C)C(=O)N[C@@H](C)C(=O)N[C@H](C)C(=O)N(C)[C@@H](CC(C)C)C(=O)N(C)[C@@H](CC(C)C)C(=O)N(C)[C@@H](C(C)C)C(=O)N1C [PSC833, reference compound], which IC50 (CHOB1; [2]) is on record?
**A.** 0.04 µg/mL (≈ 0.0329 µM)

**Q.** And the IC50 (CHOC5 (MDR); CHOC5 (MDR), MTT, three days)?
**A.** 0.1 µg/mL (≈ 0.0823 µM)

**Q.** What about the IC50 (P-388; [3]) of the same compound?
**A.** 0.02 µg/mL (≈ 0.0165 µM)

**Q.** And the IC50 (P-388/SCHABEL (MDR); [4])?
**A.** 0.05 µg/mL (≈ 0.0412 µM)

**Q.** Which results are given for COc1ccc(CCN(C)CCCC(C#N)(c2ccc(OC)c(OC)c2)C(C)C)cc1OC (stereo not drawn) [Verapamil, reference compound]?
**A.** IC50 (CHOB1; [2]): 9 µg/mL (≈ 19.8 µM); IC50 (CHOC5 (MDR); CHOC5 (MDR), MTT, three days): 4 µg/mL (≈ 8.8 µM); IC50 (P-388; [3]): 10 µg/mL (≈ 22 µM); IC50 (P-388/SCHABEL (MDR); [4]): 10 µg/mL (≈ 22 µM)

From US5852033A, “Methods of treatment using lamellarin-class alkaloids” (Pharma Mar, s.a., priority 1995, dated 1998)
